According to patent publication US20160220602A1, “USE OF CHINESE MEDICINE PREPARATION IN PREPARING DRUG FOR PREVENTING AND/OR TREATING CROHN'S DISEASE” (TASLY PHARMACEUTICAL GROUP CO., LTD., priority 2013, published 2016):

How the values were obtained:
[1] = test system: zebra fish Crohn's disease model established with TNBS; assay: Efficacy in zebra fish Crohn's disease model (intestinal area, diameter, therapeutic ratio); assay type: in vivo; settings: 10 μM in fish farm water, 48 hours
Protocol: Meanwhile, the positive control group, blank control group, Crohn's disease model group and excipient control group were set in the research. In the positive control group, the prednisolone was finally at concentration of 10 μM in fish farm water. The enema excipient disclosed in Chinese patent (CN 1192787 C) was used in the excipient control group, including adding PEG-400 solutions containing tragacanth and potassium sorbate into the fish farm water in the volume ratio of 0.3%. Wherein, the PEG-400 solution was prepared following method: adding 1.5 g of tragacanth and 2 g of potassium sorbate (particle size of 150 μm) into 28ml PEG.
30 zebra fish were randomly given to each group. […] The image analysis software was used to analyze the pictures. Meanwhile, intestine mucosal thickness, intestinal diameter and intestinal area were observed carefully under the microscope and the intestinal diameter and intestinal area analyzed quantitatively. Therapeutic ratio of tested drug in zebra fish Crohn's disease was calculated in accordance with the intestinal area in each group. The calculation formula was present as follows: […]
Variance analysis was used for comparison among many groups and Dunnett's T test for comparison between two groups.

[2] = test system: zebra fish Crohn's disease model; assay: Histopathology of intestinal tissue in zebra fish Crohn's disease model (H&E); assay type: in vivo; settings: 10 μM in fish farm water
[3] = test system: transgenic neutrophil fluorescent zebra fish Crohn's disease model; settings: 10 μM in fish farm water

C[C@]12C=CC(=O)C=C1CC[C@@H]1[C@@H]2[C@@H](O)C[C@@]2(C)[C@H]1CC[C@]2(O)C(=O)CO [prednisolone]
Intestinal area (Mean ± SD) [1]: 48646 ± 4685 | Intestinal area, Ratio of blank control group (Mean ± SE) [1]: 1.31 ± 0.04 | Intestinal diameter (Mean ± SD) [1]: 137 ± 11 | Intestinal diameter, Ratio of blank control group (Mean ± SE) [1]: 1.02 ± 0.03 | Therapeutic ratio (%) (Mean ± SE) ([1]; from intestinal area): 74±3.40% | Intestinal histopathology (H&E) [2]: the intestinal mucosal histopathology was improved obviously | Inflammation regression ratio (%) (Mean ± SE) [3]: 81±2.48% | Number of neutrophil (Mean ± SD) [3]: 20 ± 1 | Number of neutrophil, Ratio of the blank control group (Mean ± SE) [3]: 1.22 ± 0.03
